Measured values from DBAASP.
≈ marks a conversion by molar mass, not a printed value. Where “and” joins values, the source holds several entries; their conditions need not be identical. Equal values may be shown once.

What was measured:
Experiment in all cases: ≥ marks a high value that may be exact or a test limit, other limits are often not marked, values filed in µg/mL are converted to µM
Escherichia coli BW25113 = system: Escherichia coli BW25113
[1] = system: Pseudomonas aeruginosa J4228
[2] = system: Pseudomonas aeruginosa BB2013-100
[3] = system: Escherichia coli ATCC 25922
[4] = system: Acinetobacter baumannii Josh 28
[5] = system: Enterobacter cloacae BB2013-32
[6] = system: Klebsiella pneumoniae Oschner KP-1
[7] = system: Klebsiella aerogenes St. L P63
[8] = system: Escherichia coli ARLG-1012
[9] = system: Enterobacter asburiae St. L P23
[10] = system: Klebsiella pneumoniae BB2009-209
[11] = system: Enterobacter cloacae BB2012-181
[12] = system: Enterobacter cloacae St. L P23
Escherichia coli JW55034 = system: Escherichia coli JW55034
[13] = system: Pseudomonas aeruginosa ATCC 27853
[14] = system: Escherichia coli BB2013-30
[15] = system: Klebsiella pneumoniae J3702
[16] = system: Acinetobacter baumannii Josh 230
[17] = system: Staphylococcus aureus ATCC 33591
[18] = system: Escherichia coli ATCC 2592
[19] = system: Pseudomonas aeruginosa ATCC 10145
[20] = system: Candida albicans ATCC 10231
[21] = system: Cryptococcus neoformans ATCC 32045
Klebsiella pneumoniae = system: Klebsiella pneumoniae
[22] = system: Acinetobacter baumannii b-04
Pseudomonas aeruginosa = system: Pseudomonas aeruginosa
[23] = system: Acinetobacter baumannii b-03
Bacillus subtilis DB430 = system: Bacillus subtilis DB430
[24] = system: Acinetobacter baumannii b-02
[25] = system: Escherichia coli ATCC 8099
[26] = system: Salmonella enterica subsp. enterica serovar Paratyphi B CMCC 50094
[27] = system: Micrococcus luteus CMCC 28001
[28] = system: Staphylococcus epidermidis
[29] = system: Bacillus pumilus CMCC 63202
[30] = system: Klebsiella pneumoniae CMCC 46117
Micrococcus sp. S1.634 = system: Micrococcus sp. S1.634
[31] = system: Acinetobacter baumannii b-01
Staphylococcus aureus = system: Staphylococcus aureus
[32] = system: Pseudomonas aeruginosa CMCC 10104
[33] = system: Staphylococcus aureus CMCC 26003
[34] = system: Salmonella enterica subsp. enterica serovar Enteritidis MH91989
[35] = system: Salmonella typhimurium SL1344
Escherichia coli JJ2487 = system: Escherichia coli JJ2487
Escherichia coli J2210 = system: Escherichia coli J2210
Escherichia coli MC1061 = system: Escherichia coli MC1061
Escherichia coli JW0013 = system: Escherichia coli JW0013
Escherichia coli O157:H7 = system: Escherichia coli O157:H7

Question: With CC[C@H](C)[C@H](NC(=O)[C@H](CCCCN)NC(=O)[C@H](CCCCN)NC(=O)[C@@H](NC(=O)[C@H](C)NC(=O)[C@H](CCCCN)NC(=O)[C@@H](NC(=O)[C@@H](NC(=O)[C@H](CC(C)C)NC(=O)[C@H](CCCCN)NC(=O)[C@H](C)NC(=O)[C@H](Cc1c[nH]c2ccccc12)NC(=O)CN)[C@@H](C)CC)[C@@H](C)O)[C@@H](C)CC)C(N)=O [GWAKLITKAIKKI] as the compound, how does the MIC (Escherichia coli BW25113) read?
Answer: 2.72 µM (≈ 4 µg/mL)

Question: And the MIC [1]?
Answer: 10.9 µM (≈ 16 µg/mL)

Question: What about the MIC [2] of the same compound?
Answer: 21.8 µM (≈ 32 µg/mL)

Question: What about the MIC [3] of the same compound?
Answer: 12 µM and 24.1 µM

Question: And the MIC [4]?
Answer: 2.72 µM (≈ 4 µg/mL)

Question: And the MIC [5]?
Answer: 10.9 µM (≈ 16 µg/mL)

Question: And the MIC [6]?
Answer: 21.8 µM (≈ 32 µg/mL)

Question: What about the MIC [7] of the same compound?
Answer: 10.9 µM (≈ 16 µg/mL)

Question: What about the MIC [8] of the same compound?
Answer: 2.72 µM (≈ 4 µg/mL)

Question: And the MIC [9]?
Answer: 21.8 µM (≈ 32 µg/mL)

Question: And the MIC [10]?
Answer: 21.8 µM (≈ 32 µg/mL)

Question: And the MIC [11]?
Answer: 10.9 µM (≈ 16 µg/mL)

Question: What about the MIC [12] of the same compound?
Answer: 21.8 µM (≈ 32 µg/mL)

Question: And the MIC (Escherichia coli JW55034)?
Answer: 2.72 µM (≈ 4 µg/mL)

Question: And the MIC [13]?
Answer: 5.44 µM (≈ 7.99 µg/mL)

Question: And the MIC [14]?
Answer: 5.44 µM (≈ 7.99 µg/mL)

Question: What about the MIC [15] of the same compound?
Answer: 10.9 µM (≈ 16 µg/mL)

Question: And the MIC [16]?
Answer: 10.9 µM (≈ 16 µg/mL)

Question: Which MIC [17] does the source give for NCCCC[C@H](NC(=O)[C@H](Cc1ccccc1)NC(=O)[C@H](CCCCN)NC(=O)[C@H](CCCCN)NC(=O)[C@H](Cc1ccccc1)NC(=O)[C@H](CCCCN)NC(=O)[C@H](CCCCN)NC(=O)[C@H](Cc1ccccc1)NC(=O)[C@H](CCCCN)NC(=O)[C@H](CCCCN)NC(=O)[C@H](Cc1ccccc1)NC(=O)[C@H](CCCCN)NC(=O)[C@H](CCCCN)NC(=O)[C@H](Cc1ccccc1)NC(=O)[C@H](CCCCN)NC(=O)[C@H](CCCCN)NC(=O)[C@H](Cc1ccccc1)NC(=O)[C@H](CCCCN)NC(=O)[C@H](CCCCN)NC(=O)[C@H](Cc1ccccc1)NC(=O)[C@H](CCCCN)NC(=O)[C@H](CCCCN)NC(=O)[C@H](Cc1ccccc1)NC(=O)[C@@H](N)CCCCN)C(=O)O [KFKKFKKFKKFKKFKKFKKFKKFK] here?
Answer: ≥ 77 µM

Question: What about the MIC [18] of the same compound?
Answer: 13.7 µM (≈ 44.5 µg/mL)

Question: And the MIC [19]?
Answer: ≥ 77 µM

Question: What about the MIC [20] of the same compound?
Answer: 54.5 µM (≈ 177 µg/mL)

Question: What about the MIC [21] of the same compound?
Answer: 15.3 µM (≈ 49.8 µg/mL)

Question: With CC[C@H](C)[C@H](NC(=O)[C@H](Cc1ccccc1)NC(=O)[C@H](CO)NC(=O)[C@H](CCCCN)NC(=O)[C@H](Cc1c[nH]c2ccccc12)NC(=O)[C@@H](N)CCCCN)C(=O)N[C@@H](CCCCN)C(=O)N[C@@H](CCCCN)C(=O)N[C@@H](CC(C)C)C(=O)N[C@H](C(=O)N[C@@H](CCCCN)C(=O)N[C@@H](CCCCN)C(=O)N[C@@H](Cc1ccccc1)C(=O)N[C@@H](CC(C)C)C(=O)N[C@@H](Cc1cnc[nH]1)C(=O)N[C@@H](CO)C(=O)N[C@@H](C)C(=O)N[C@@H](CCCCN)C(=O)N[C@@H](CCCCN)C(=O)N[C@@H](Cc1ccccc1)C(N)=O)[C@@H](C)O [KWKSFIKKLTKKFLHSAKKF] as the compound, how does the MIC (Klebsiella pneumoniae) read?
Answer: 0.567 µM (≈ 1.41 µg/mL)

Question: What about the MIC [22] of the same compound?
Answer: 0.641 µM (≈ 1.6 µg/mL)

Question: And the MIC (Pseudomonas aeruginosa)?
Answer: 0.641 µM and 1.13 µM

Question: And the MIC [23]?
Answer: 1.3 µM (≈ 3.25 µg/mL)

Question: And the MIC (Bacillus subtilis DB430)?
Answer: 0.802 µM (≈ 2 µg/mL)

Question: What about the MIC [24] of the same compound?
Answer: 1.25 µM (≈ 3.12 µg/mL)

Question: What about the MIC [25] of the same compound?
Answer: 0.201 µM (≈ 0.5 µg/mL)

Question: What about the MIC [26] of the same compound?
Answer: 0.802 µM (≈ 2 µg/mL)

Question: What about the MIC [27] of the same compound?
Answer: 0.802 µM (≈ 2 µg/mL)

Question: What about the MIC [28] of the same compound?
Answer: 0.802 µM (≈ 2 µg/mL)

Question: What about the MIC [29] of the same compound?
Answer: 0.201 µM (≈ 0.5 µg/mL)

Question: What about the MIC [30] of the same compound?
Answer: 0.802 µM (≈ 2 µg/mL)

Question: And the MIC (Micrococcus sp. S1.634)?
Answer: 0.401 µM (≈ 1 µg/mL)

Question: And the MIC [31]?
Answer: 0.321 µM (≈ 0.8 µg/mL)

Question: What about the MIC (Staphylococcus aureus) of the same compound?
Answer: 0.401 µM (≈ 1 µg/mL)

Question: What about the MIC [32] of the same compound?
Answer: 1.6 µM (≈ 4 µg/mL)

Question: What about the MIC [33] of the same compound?
Answer: 0.201 µM (≈ 0.5 µg/mL)

Question: Which results are given for CC[C@H](C)[C@H](NC(=O)[C@H](CCCN=C(N)N)NC(=O)[C@H](CCCN=C(N)N)NC(=O)[C@@H]1CCCN1C(=O)[C@@H]1CCCN1C(=O)[C@H](CCCN=C(N)N)NC(=O)[C@@H]1CCCN1C(=O)[C@H](CCCN=C(N)N)NC(=O)[C@@H]1CCCN1C(=O)[C@H](CCCCN)NC(=O)[C@H](Cc1ccc(O)cc1)NC(=O)[C@@H]1CCCN1C(=O)[C@H](CCCN=C(N)N)NC(=O)[C@H](CCCCN)NC(=O)[C@H](CC(=O)O)NC(=O)[C@@H](N)C(C)C)C(=O)N[C@@H](Cc1ccc(O)cc1)C(=O)N[C@@H](CC(N)=O)C(=O)N[C@@H](CCCN=C(N)N)C(N)=O [VDKRPYKPRPRPPRRIYNR]?
Answer: MIC [34]: 0.158 µM (≈ 0.39 µg/mL); MIC [35]: 0.158 µM (≈ 0.39 µg/mL); MIC (Escherichia coli JJ2487): 0.158 µM (≈ 0.39 µg/mL); MIC (Escherichia coli J2210): 0.122 µM (≈ 0.3 µg/mL); MIC (Escherichia coli MC1061): 0.0609 µM (≈ 0.15 µg/mL); MIC (Escherichia coli JW0013): 0.337 µM (≈ 0.83 µg/mL); MIC (Escherichia coli O157:H7): 0.974 µM (≈ 2.4 µg/mL)
